Measurements from US10344330B2, “Glatiramer acetate response biomarker mRNA potency assay” (Mylan Inc., priority 2013, dated 2019).

B1: MBP: myelin basic protein, a negative control (protein, UniProt P02686 1-304, looked up)
Myelin basic protein: MGNHAGKRELNAEKASTNSETNRGESEKKRNLGELSRTTSEDNEVFGEADANQNNGTSSQDTAVTDSKRTADPKNAWQDAHPADPGSRPHLIRLFSRDAPGREDNTFKDRPSESDELQTIQEDSAATSESLDVMASQKRPSQRHGSKYLATASTMDHARHGFLPRHRDTGILDSIGRFFGGDRGAPKRGSGKDSHHPARTAHYGSLPQKSHGRTQDENPVVHFFKNIVTPRTPPPSQGKGRGLSLSRFSWGAEGQRPGFGYGGRASDYKSAHKGFKGVDAQGTLSKIFKLGGRDSRSGSPMARR

Columns and labels:
[1] = system: TNF-α secreted by LN cells; test: TNF-α secretion by GA-stimulated LN cells, MSD 9-plex ELISA (Example II); assay type: cell-based, mouse; details: for TNF-α secretion response ratio (treated cell medium to control DCCM1 medium): 21 hr
Method: (§1) Animals at 8 weeks of age were immunized by injection into four footpads using a 1 mL syringe with a 27-G, 1⁄2-inch needle. […] Ten days post-immunization, immunized animals were sacrificed via cervical dislocation. […] The LN cells were isolated by pressing the LN with the plunger end of a sterile syringe. […] Trypan blue exclusion method was used to determine the cell density of viable cells in the suspension. […] Cat. […] LN cells were plated into a 24-well tissue culture plate for drug stimulation. […] Cell debris was removed by centrifugation at ca. 200×g for 10 minutes at 4° C. Cytokines secreted by treated cells were determined on the day of collection by ELISA using mouse TH 1/TH 2 9-Plex Tissue Culture Kit (Meso Scale Discovery; Cat No. […]-2, Lot #: K0032839) which detects Th1 cytokines (IFN-γ, IL-2, IL-12, IL-1β, TNF-α, CXCL1) and Th2 cytokines (IL-4, IL-5 and IL-10). For IFN-γ, culture media also were assayed at 45 hours using mouse IFN-γ Tissue Culture Kit (Meso Scale Discovery; Cat No. […] For the positive control, 0.5 mL of LN cells (5×10^6 cells/well) were treated with 0.5 mL of ConA (5 μg/mL). For the negative control, 0.5 mL of LN cells (5×10^6 cells/well) were treated with 0.5 mL of MBP (20 μg/mL). The LN cells with mock stimulation (enriched DCCM1 medium) were used to monitor the background level of a cytokine. For the cytokine assays, calibration standards or samples were incubated in the MULTI-SPOT or the SINGLE-SPOT plate and each cytokine bound to its corresponding capture antibody. All test samples were run in duplicate. The amount of each cytokine on its distinct spot was quantified using a cytokine-specific detection antibody labeled with MSD SULFO-TAGTM reagent. Electrochemiluminescent signals from immobilized SULFO-TAGTM-labeled complexes on each spot from each well were captured by the MSD SECTOR Imager 6000, which produces a signal directly proportional to the amount of captured cytokine in a test sample. The levels of cytokines in test samples were derived by interpolation from calibration curves with calibration standards of known concentrations using reagents provided with the MSD kits. Kits were used according to the manufacturer's protocols. […] Data are expressed as a response ratio of cytokine concentration in treated cell medium to control DCCM1 medium.

[2] = system: IL-12 (total) secreted by LN cells; test: IL-12 (total) secretion by GA-stimulated LN cells, MSD 9-plex ELISA (Example II); assay type: cell-based, mouse; details: for IL-12 (total) secretion response ratio (treated cell medium to control DCCM1 medium): 21 hr
Method: as §1

[3] = system: mouse IL-4 mRNA in primary LN cells; test: Mouse IL-4 mRNA in LN cells of immunized SJL/J mice stimulated with Copaxone and GMA lots, normalized to Actβ or GAPDH (Example V); assay type: cell-based
Method: A real-time polymerase chain reaction method was used to measure the expression of cytokine mRNA in GA-stimulated LN cells from GA-immunized SJL/J mice. Normalization of expression with two different housekeeping genes, GAPDH and β-actin, was tested.
Each group consisted of six female SJL/J mice immunized by injection in all four footpads with a total dose of 250 μg of one lot of GA, or mannitol and no GA. Three Copaxone batches and three GMA batches were used to immunize the mice. CFA was included in both GA and mannitol immunizations. Ten days following immunization, LN cell samples isolated from the immunized mice were each stimulated with a concentration of a Copaxone lot and a GMA lot. A positive control of 2.5 μg/mL ConA treated LN cells and a negative control of 10 μg/mL MBP treated cells were included in each group.
Therefore, the Q-PCR analysis was repeated on the samples, measuring levels of IL-2, IL-4, IL-5, and IL-13, using both GAPDH and β-actin as reference gene.

[4] = system: IL-1b secreted by LN cells; test: IL-1b secretion by GA-stimulated LN cells, MSD 9-plex ELISA (Example II); assay type: cell-based, mouse; details: for IL-1b secretion response ratio (treated cell medium to control DCCM1 medium): 21 hr
[5] = system: IL-4 secreted by LN cells; test: IL-4 secretion by GA-stimulated LN cells, MSD 9-plex ELISA (Example II); assay type: cell-based, mouse; details: for IL-4 secretion response ratio (treated cell medium to control DCCM1 medium): 21 hr
Method: as §1

[6] = BALB/cByJ, immunized GA Intraplantar
[7] = BALB/cByJ, immunized GA Lower Limb
[8] = BALB/cByJ, immunized Mannitol Intraplantar
[9] = C57BL10J, immunized GA Intraplantar
[10] = C57BL10J, immunized GA Lower Limb
[11] = C57BL10J, immunized Mannitol Intraplantar
[12] = CD-1, immunized GA Intraplantar
[13] = CD-1, immunized Mannitol Intraplantar
[14] = cells from any of the three mouse strains

Molecule | TNF-α secretion response ratio (treated cell medium to control DCCM1 medium) [1, 6] | TNF-α secretion response ratio (treated cell medium to control DCCM1 medium) [1, 7] | TNF-α secretion response ratio (treated cell medium to control DCCM1 medium) [1, 8] | TNF-α secretion response ratio (treated cell medium to control DCCM1 medium) [1, 9] | TNF-α secretion response ratio (treated cell medium to control DCCM1 medium) [1, 10] | TNF-α secretion response ratio (treated cell medium to control DCCM1 medium) [1, 11] | TNF-α secretion response ratio (treated cell medium to control DCCM1 medium) [1, 12] | TNF-α secretion response ratio (treated cell medium to control DCCM1 medium) ([1]; CD-1, immunized GA Lower Limb) | TNF-α secretion response ratio (treated cell medium to control DCCM1 medium) [1, 13] | IL-12 (total) secretion response ratio (treated cell medium to control DCCM1 medium) [2, 6] | IL-12 (total) secretion response ratio (treated cell medium to control DCCM1 medium) [2, 7] | IL-12 (total) secretion response ratio (treated cell medium to control DCCM1 medium) [2, 8] | IL-12 (total) secretion response ratio (treated cell medium to control DCCM1 medium) [2, 9] | IL-12 (total) secretion response ratio (treated cell medium to control DCCM1 medium) [2, 10] | IL-12 (total) secretion response ratio (treated cell medium to control DCCM1 medium) [2, 11] | IL-12 (total) secretion response ratio (treated cell medium to control DCCM1 medium) [2, 12] | IL-12 (total) secretion response ratio (treated cell medium to control DCCM1 medium) ([2]; CD-1, immunized GA Lower Limb) | IL-12 (total) secretion response ratio (treated cell medium to control DCCM1 medium) [2, 13] | IL-1b secretion response ratio (treated cell medium to control DCCM1 medium) [4, 6] | IL-1b secretion response ratio (treated cell medium to control DCCM1 medium) [4, 7] | also measured
Concanavalin A [ConA, reference compound] | 27.69 | 10.87 | 11.61 | 2.53 | 2.02 | 2.10 | 17.59 | 9.79 | 23.88 | 1.66 | 1.10 | 1.44 | 1.88 | 1.01 | 0.92 | 1.09 | 1.91 | 1.80 | 11.73 | 8.70 | IL-4 mRNA Fold Change ([3]; Group 3 (mice immunized with GA-M2 Mylan GMA), 2.5 μg/mL, normalized to Actβ): 43.6 fold; IL-4 mRNA Fold Change ([3]; Group 3 (mice immunized with GA-M2 Mylan GMA), 2.5 μg/mL, normalized to GAPDH): 87.9 fold; IL-4 mRNA Fold Change ([3]; Group 4 (mice immunized with GA-C2 Copaxone), 2.5 μg/mL, normalized to Actβ): 48.3 fold; IL-4 mRNA Fold Change ([3]; Group 4 (mice immunized with GA-C2 Copaxone), 2.5 μg/mL, normalized to GAPDH): 84.8 fold; IL-1b secretion response ratio (treated cell medium to control DCCM1 medium) [4, 10]: 1.42; IL-1b secretion response ratio (treated cell medium to control DCCM1 medium) ([4]; CD-1, immunized GA Lower Limb): 2.86; IL-4 secretion response ratio (treated cell medium to control DCCM1 medium) [5, 6]: 46.47; IL-4 secretion response ratio (treated cell medium to control DCCM1 medium) [5, 7]: 75.33; IL-4 secretion response ratio (treated cell medium to control DCCM1 medium) [5, 8]: 24.71; IL-4 secretion response ratio (treated cell medium to control DCCM1 medium) [5, 9]: 3.26; IL-4 secretion response ratio (treated cell medium to control DCCM1 medium) [5, 10]: 4.85; IL-4 secretion response ratio (treated cell medium to control DCCM1 medium) [5, 11]: 3.14; IL-4 secretion response ratio (treated cell medium to control DCCM1 medium) [5, 12]: 9.86; IL-4 secretion response ratio (treated cell medium to control DCCM1 medium) ([5]; CD-1, immunized GA Lower Limb): 4.91; IL-4 secretion response ratio (treated cell medium to control DCCM1 medium) [5, 13]: 3.36
L-glutamic acid polymer with L-alanine, L-lysine and L-tyrosine, acetate (salt) [GA] |  |  |  |  |  |  |  |  |  |  |  |  |  |  |  |  |  |  |  |  | TNF-α secretion, dose response to GA (in words) [1, 14]: No dose response; IL-12 secretion, dose response to GA (in words) [2, 14]: No dose response; IL-4 cross-potency ([3]; Copaxone: C/A, GMA: B/D, 5 μg/mL): 103%; IL-1β secretion, dose response to GA (in words) ([4]; BALB/cByJ and CD-1, primed by intraplantar injection): Dose response of IL-1β was detected; IL-4 secretion, dose response to GA (in words) ([5]; BALB/cByJ cells): dose-dependent manner
B1 | 0.98 | 1.07 | 1.10 | 1.03 | 1.04 | 1.01 | 1.34 | 1.54 | 1.51 | 1.09 | 1.04 | 1.05 | 1.18 | 1.19 | 1.13 | 1.22 | 1.18 | 0.99 | 1.15 | 0.96 | IL-4 mRNA Fold Change ([3]; Group 3 (mice immunized with GA-M2 Mylan GMA), 10 μg/mL, normalized to Actβ): 0.8 fold; IL-4 mRNA Fold Change ([3]; Group 3 (mice immunized with GA-M2 Mylan GMA), 10 μg/mL, normalized to GAPDH): 0.7 fold; IL-4 mRNA Fold Change ([3]; Group 4 (mice immunized with GA-C2 Copaxone), 10 μg/mL, normalized to Actβ): 2.4 fold; IL-4 mRNA Fold Change ([3]; Group 4 (mice immunized with GA-C2 Copaxone), 10 μg/mL, normalized to GAPDH): 1.3 fold; IL-1b secretion response ratio (treated cell medium to control DCCM1 medium) [4, 10]: 1.17; IL-1b secretion response ratio (treated cell medium to control DCCM1 medium) ([4]; CD-1, immunized GA Lower Limb): 1.00; IL-4 secretion response ratio (treated cell medium to control DCCM1 medium) [5, 6]: 0.99; IL-4 secretion response ratio (treated cell medium to control DCCM1 medium) [5, 7]: 1.05; IL-4 secretion response ratio (treated cell medium to control DCCM1 medium) [5, 8]: 1.50; IL-4 secretion response ratio (treated cell medium to control DCCM1 medium) [5, 9]: 1.09; IL-4 secretion response ratio (treated cell medium to control DCCM1 medium) [5, 10]: 1.14; IL-4 secretion response ratio (treated cell medium to control DCCM1 medium) [5, 11]: 1.03; IL-4 secretion response ratio (treated cell medium to control DCCM1 medium) [5, 12]: 0.99; IL-4 secretion response ratio (treated cell medium to control DCCM1 medium) ([5]; CD-1, immunized GA Lower Limb): 0.94; IL-4 secretion response ratio (treated cell medium to control DCCM1 medium) [5, 13]: 1.21
